The values below come from patent US20250324983A1, “METHOD AND APPARATUS FOR CONTROLLING ARTHROPODS USING MASSOIA ESSENTIAL OIL AND RELATED PYRONES” (The United States of America, as Represented by the …, priority 2024, published 2025).

In one data set the test system is Aedes albopictus. Conditions: compounds identified from massoia and nutmeg essential oils; cited from earlier work.
In another data set the test system is Aedes aegypti. Kind of data set: Spatial repellency, high-throughput glass tube assay. The class given is in vivo. As to conditions: concentration repelling 50% of adult female Aedes aegypti, treated filter paper in glass tube. As to the method: Adult female non-bloodfed Aedes aegypti that were 2-10 days post-eclosion were cold-anesthetized by placing on ice for several minutes. Each replicate consisted of 16 anesthetized females transferred to a glass tube (length 12.5 cm, outer diameter 2.5 cm) (TriKinetics Inc., Waltham, MA). Glass tubes were then enclosed on each end by netting held in place with blue caps removed from 50-mL polypropylene centrifuge tubes (Falcon™; Corning Inc., Corning, NY). Mosquitoes were allowed at least 15 min to recover from cold anesthetization. Round filter papers (diameter 2.5 cm) (Sigma-Aldrich Chemical Co., CITY, ST) were treated with 50 μL solution of compound dissolved in acetone at different concentrations. Treated filter papers were allowed to air dry for 10 min to allow for acetone evaporation, at which point filter papers were placed inside the cut ends of 50-mL polypropylene centrifuge tubes. The end caps with treated filter paper were then placed on the ends of the glass tubes, replacing the blue caps, with the netting left to prevent mosquito escape.
Glass tube bioassay setups were placed on a contrasting white background to facilitate observing and counting mosquitoes with a black line drawn to mark the center of the tube length. Control bioassays were set up with filter papers treated with 50 μL of acetone. Repellency was calculated as a repellency ratio using the formula: number of mosquitoes on the experimental treatment side/16, where a value of 0 is equal to full repellency and a value of 0.5 indicates no effect—i.e., an even distribution of mosquitoes on either side the tube midline. Data were recorded at 15 min, 30 min, and 1 hr for repellency and knockdown, as well as at 24 hr for mortality. […] Each concentration was replicated at least three times. After use, glass tubes were decontaminated by washing in soapy water and rinsed with acetone and distilled water. Treatment caps and nettings were washed using soapy water and rinsed with distilled water. Data were analyzed using a 4-parameter logistic regression in GraphPad Prism 9. The effective concentration that repelled 50% of mosquitoes (EC50) was used to compare different treatments.

Data set [1] deals with mosquitoes or biting flies. The data set can be described thus: Contact repellency, cloth patch test (minimum effective dose). Conditions: minimum effective dose on cloth. Format: in vivo. Here is the method:
The cloth patch test can be used to assess the effective repellency duration for a particular application rate of a chemical to cloth being worn on the arm of a human subject. The test allows candidate repellents to be tested without contacting the skin. The candidate substance is dissolved initially in a suitable solvent which is typically acetone; however, can be extended to ethanol or DMSO (dimethyl sulfoxide). The typical protocol for a limited quantity of substance involves dissolving up to 75 mg of the candidate repellent into 1 mL of an appropriate volatile solvent, such as acetone or ethanol, in a 2-dram vial. The choice of solvent depends upon the miscibility characteristics of the candidate repellent. A 50 cm^2 (5 cm×10 cm) clean, untreated piece of muslin cloth is rolled, placed in the vial and sealed therein to allow the cloth to saturate completely with the solution. […] Prior to the bioassay, the saturated cloth is removed and each end of the cloth is attached to a 5 cm×2.5 cm piece of cardstock paper. To each card, masking tape is attached. The card/cloth assembly is then allowed to dry for 15 min hanging from a rack by the masking tape. This time is adequate to allow complete evaporation of the solvent from the cloth.
To prepare the arm for testing, the volunteer first places a latex or nitrile glove (extended length beyond the wrist) over the hand and arm and then pulls a nylon hose stocking over the hand and arm up to a point that is past the elbow. This glove prevents mosquitoes from biting through to the hand, wrist, and part of the arm where the glove provides protection. A thick plastic sleeve with a Velcro® strip is then fastened around the arm. There is a 4 cm×8 cm window opening cut into the sleeve. Volunteers may elect to use either of the two designs of this sleeve: one has a window opening with a screen mesh, the other is completely open. The cloth card frame is then taped onto the forearm at a position overlapping the window opening of the sleeve. This allows attractive human odors to escape through the opened area of the sleeve and this small window is the only area accessible for bites. Once the cloth/card assembly is on the arm, the arm is placed inside an insect cage with mosquitoes or biting flies for one minute. Typically, the test involves 500 biting flies or mosquitoes, but can be performed at a variety of biting pressures from 200-2000 individuals, but is rarely ever performed at a pressure of greater than 2000 in a cage. […]
If a sufficient quantity of the candidate repellent is available, the minimum effective dose (MED) can be determined. […] In these cases, stoichiometric equivalents, i.e., micromolar quantities, are applied to the cloth and tested as described above. […]

In data set [2] the test system is central nervous system (CNS) of third-fourth-instar Aedes aegypti larvae. The data set can be described thus: Central nervous system recording of mosquito larvae. Conditions: applied at 100 μM. Here is the method: Extracellular recordings were performed on the central nervous system (CNS) of third-fourth-instar Aedes aegypti larvae as previously described in Norris et al., “Recording central neurophysiological output from mosquito larvae for neuropharmacological and insecticide resistance studies”, Journal of Insect Physiology, 135 (2021) 104319. Mosquito larvae were pinned down and dissected to expose the descending ventral nerve cord in a saline bath (157 mM NaCl, 3 mM KCl, 2 mM CaCl2), 4 mM HEPES). The ventral nerve cord was severed using a small forceps between the second and third abdominal ganglion. Descending electrical activity was monitored by drawing emanating nerve fibers from the ventral nerve cord into a suction electrode connected to an AC/DC differential amplifier (Model 3000, A-M Systems, Inc., Carlsborg, WA). Signals were subjected to window amplitude discrimination and converted into a rate plot, expressed in Hertz (Hz), using LabChart 7 Pro software (AD Instruments Inc. Colorado Springs, CO). Noise (60 Hz) was eliminated using a Hum Bug (A-M Systems, Sequim, WA,).
Electrical activity was monitored for approximately 5-10 min to establish a baseline CNS firing rate before test solutions were added to the bath in DMSO at 1 μL of solution diluted into 999 μL of saline. All concentrations of active ingredients were expressed as their final concentrations in saline. […]

The test system of data set [3] is Aedes aegypti mosquitoes (susceptible—Orlando strain). Kind of data set: Topical application, knockdown and mortality. As to conditions: in vivo. As to the method: Aedes aegypti mosquitoes (susceptible—Orlando strain) were reared using standard protocols at the United States Department of Agriculture, Agricultural Research Service Center for Medical, Agricultural, and Veterinary Entomology (CMAVE) in Gainesville, FL. Mosquitoes raised from pupae were aspirated from colony cages and anesthetized on ice. Mosquitoes were then treated with 0.2 μL of variable concentrations of insecticidal active ingredients using a repeating microapplicator (Hamilton Co., Reno, NV). Ten mosquitoes were used per concentration and at least three different biological cohorts were used in the analysis. Knockdown (defined as inability to fly or orient in the upright direction) was recorded at 1 hr or other time points post application (depending on the experiment), whereas mortality (defined as no movement-ataxia) was recorded at 24 hr. Concentrations that produced 10-90% mortality at 24 hr post exposure were used in the analysis to calculate the lethal dose required to kill 50% of the population (LD50). SAS 9.4 was used to calculate the LD50 values using a PROC PROBIT model with Abbott's correction to account for any control mortality.

In the case of `CC1=CCC(=C(C)C)CC1` [terpinolene], in the data set with Aedes albopictus, the “larvicidal activity (in words)” value was “strong larvicidal activity”.
On to jasmolactone, for which the “EC50 (spatial repellency)” value with Aedes aegypti amounted to 60.5 μg/cm^2.
Regarding `O=C(OCc1ccccc1)c1ccccc1` [benzyl benzoate], the “larvicidal activity (in words)” value with Aedes albopictus is on record as “strong larvicidal activity”.
Consider `CCCCN(CCC(=O)OCC)C(C)=O` [IR3535, ethyl butylacetylaminopropionate, reference compound], for which the “EC50 (spatial repellency)” value with Aedes aegypti was found to be 91.8 μg/cm^2.
On to `O=C(OCc1ccccc1)c1ccccc1O` [benzyl salicylate], for which, in the data set with Aedes albopictus, the “larvicidal activity (in words)” value is “strong larvicidal activity”.
With `CCCCCCC[C@@H]1CC=CC(=O)O1` [C12 massoia lactone, C-12-massoia lactone], in the data set with Aedes albopictus, the “larvicidal activity (in words)” value is listed as “strong larvicidal activity”.
Take δ-undecalactone: the “EC50 (spatial repellency)” value in the data set on Aedes aegypti amounted to 29.5 μg/cm^2.
As for `CCC(C)OC(=O)N1CCCCC1CCO` (centres unmarked) [icaridin], in data set [1], the MED is recorded as 0.015 ± 0.004 ^B mg/cm^2.
The same measure, in the same setting: to `CCN(CC)C(=O)c1cccc(C)c1` [DEET, N,N-Diethyl-meta-toluamide] belongs 0.009 ± 0.003 ^B mg/cm^2.
With `C/C=C/C(=O)C1C(C)C=CCC1(C)C` (centres unmarked) [δ-damascone], the “EC50 (spatial repellency)” value with Aedes aegypti is recorded as 108.5 μg/cm^2.
Turning to `C=C1CCC2(C(C)C)CC12` (centres unmarked) [sabinene], the “larvicidal activity (in words)” value in the data set on Aedes albopictus was “strong larvicidal activity”.
`CCCCCc1cccc(=O)o1` [α-amyl-pyrone]: in the data set with Aedes aegypti, the “EC50 (spatial repellency)” value is reported as 6.1 μg/cm^2.
With `CCCCCC1CC=CC(=O)O1` (centres unmarked) [massoia lactone, 2H-pyran-2-one, 5,6-dihydro-6-pentyl-], in data set [2], the “nerve block (CNS firing)” value is reported as “some nerve block”. Also, in the data set with Aedes albopictus, the “larvicidal activity (in words)” value is reported as “strong larvicidal activity”. Besides, the “Slope (LD50)” value in data set [3] stood at 8.3. Moreover, in data set [1], the MED was 0.007 ± 0.002 ^B mg/cm^2. The “EC50 (spatial repellency)” value with Aedes aegypti was determined as 5.9 μg/cm^2.
In the case of `CCCCCCCC1CCC(=O)O1` (centres unmarked) [γ-undecalactone], in the data set on Aedes aegypti, the “EC50 (spatial repellency)” value amounted to 18.32 μg/cm^2.
With `CC1(C)C(C=C(Cl)Cl)C1C(=O)OCc1cccc(Oc2ccccc2)c1` (centres unmarked) [permethrin], in data set [1], the MED is given as 0.100 ± 0.022 ^A mg/cm^2.
As to `CCCCCCCC1CCCC(=O)O1` (centres unmarked) [5-dodecanolide], in the data set with Aedes aegypti, the “EC50 (spatial repellency)” value is recorded as 77.11 μg/cm^2.
